# Measurements: patent US20160030391A1, “METHODS AND COMPOSITIONS FOR IMPROVING COGNITIVE FUNCTION” (THE JOHNS HOPKINS UNIVERSITY, priority 2013, published 2016)
# Like-named read-outs stand apart in the source and are kept apart here.
# How the values were obtained:
# aMCI subjects [1] = assay: Verbal Paired Associates Test - Recognition; format: in vivo, human; details: levetiracetam 125 mg twice a day for two weeks
# Text: (§1) Breaks are provided to the subject as needed.
# aMCI subjects [2] = assay: Buschke Selective Reminding Test - Delayed Recall; format: in vivo, human; details: levetiracetam 125 mg twice a day for two weeks
# aMCI subjects [3] = assay: Benton Visual Retention Test; format: in vivo, human; details: levetiracetam 125 mg twice a day for two weeks
# Text: as §1
# aged-impaired (AI) rats = assay: eight-arm Radial Arm Maze task, one-hour delay, aged-impaired rats; format: in vivo, rat; details: for average no. of errors±SEM: one-hour delay; for effective in reducing the number of errors by AI rats in the radial arm maze: levetiracetam on its own
# Method: The effects of levetiracetam on the spatial memory retention of aged-impaired (AI) rats were assessed in a Radial Arm Maze (RAM) behavioral task using vehicle control and five different dosage levels of levetiracetam (1.25 mg/kg/day, 2.5 mg/kg/day, 5 mg/kg/day, 10 mg/kg/day and 20 mg/kg/day). RAM behavioral tasks were preformed on ten AI rats. All six treatment conditions were tested on all ten rats, as described above for the MWM test. The RAM apparatus used consisted of eight equidistantly-spaced arms. An elevated maze arm (7 cm width x 75 cm length) projected from each facet of an octagonal center platform (30 cm diameter, 51.5 cm height). Clear side walls on the arms were 10 cm high and were angled at 65° to form a trough. A food well (4 cm diameter, 2 cm deep) was located at the distal end of each arm. Froot Loops™ (Kellogg Company) were used as rewards. Blocks constructed of Plexiglas™ (30 cm height x 12 cm width) could be positioned to prevent entry to any arm. Numerous extra maze cues surrounding the apparatus were also provided. The AI rats were initially subjected to a pre-training test (Chappell et al. Neuropharmacology 37: 481-487, 1998). The pre-training test consisted of a habituation phase (4 days), a training phase on the standard win-shift task (18 days) and another training phase (14 days) in which a brief delay was imposed between presentation of a subset of arms designated by the experimenter (e.g., 5 arms available and 3 arms blocked) and completion of the eight-arm win-shift task (i.e., with all eight arms available). In the habituation phase, rats were familiarized to the maze for an 8-minute session on four consecutive days. In each of these sessions food rewards were scattered on the RAM, initially on the center platform and arms and then progressively confined to the arms. After this habituation phase, a standard training protocol was used, in which a food pellet was located at the end of each arm. Rats received one trial each day for 18 days. Each daily trial terminated when all eight food pellets had been obtained or when either 16 choices were made or 15 minutes had elapsed. After completion of this training phase, a second training phase was carried out in which the memory demand was increased by imposing a brief delay during the trial. At the beginning of each trial, three arms of the eight-arm maze were blocked. Rats were allowed to obtain food on the five arms to which access was permitted during this initial ‘information phase’ of the trial. Rats were then removed from the maze for 60 seconds, during which time the barriers on the maze were removed, thus allowing access to all eight arms. Rats were then placed back onto the center platform and allowed to obtain the remaining food rewards during this ‘retention test’ phase of the trial. The identity and configuration of the blocked arms varied across trials. The number of “errors” the AI rats made during the retention test phase was tracked. An error occurred in the trial if the rats entered an arm from which food had already been retrieved in the pre-delay component of the trial, or if it re-visited an arm in the post-delay session that had already been visited. After completion of the pre-training test, rats were subjected to trials with more extended delay intervals, i.e., a one-hour delay, between the information phase (presentation with some blocked arms) and the retention test (presentation of all arms). During the delay interval, rats remained off to the side of the maze in the testing room, on carts in their individual home cages. AI rats were pretreated 30-40 minutes before daily trials with a one-time shot of the following six conditions: 1) vehicle control (0.9% saline solution); 2) levetiracetam (1.25 mg/kg/day); 3) levetiracetam (2.5 mg/kg/day); 4) levetiracetam (5 mg/kg/day); 5) levetiracetam (10 mg/kg/day); 6) levetiracetam (20 mg/kg/day); through intraperitoneal (i.p.) injection. Injections were given every other day with intervening washout days. […]
# aMCI subjects [4] = assay: Verbal Paired Associates Test - Delayed Recall; format: in vivo, human; details: levetiracetam 125 mg twice a day for two weeks
# Text: as §1
# [5] = levetiracetam blood plasma levels in aMCI subjects; format: in vivo; details: human, upon completion of treatment, read-out: mean levetiracetam blood plasma level
# Text: At the end of the first drug/placebo period 2 weeks after the Baseline Visit, the medical, neurological and psychiatric evaluations and cognitive testing are repeated. The subject is also clinically evaluated for suicidal ideation. Blood is drawn again to repeat the standard tests and to determine whether there are any changes related to drug treatment; the subject's blood levetiracetam level is also obtained. All medication dispensed at the Baseline Visit (drug or placebo) is collected and subject compliance with the medication regimen is assessed. The first fMRI session (with cognitive tests) is conducted on the same day, either immediately before or immediately after the clinical assessment. Subjects discontinue first period treatment at this visit.
# At approximately 2 weeks after the Washout Visit (i.e., 2 weeks after starting the second treatment period), the medical, neurological and psychiatric evaluations and the cognitive testing are repeated. The subject is clinically evaluated for suicidal ideation. Blood is drawn again to repeat the standard tests and to determine whether there were any changes related to drug treatment; the subject's blood levetiracetam level is also obtained. All medication dispensed at the Washout Visit is collected and subject compliance with the medication regimen is assessed. The second fMRI session (with cognitive tests) is repeated on the same day, either immediately before or immediately after the clinical assessment.
# Human: in the human studies described in Examples 3 and 4, a subject's levetiracetam blood plasma level was assessed at each visit. The subject's blood was drawn by the Johns Hopkins Phlebotomy Service and analysis of levetiracetam blood plasma levels was conducted either by the Johns Hopkins Core laboratory or by MedTox Laboratories in St. Paul, Minn. for the 62.5 mg BID cohort, the 125 mg BID cohort and the 250 mg BID cohort.
structure (smiles),measurement,setting,value
"CC[C@@H](C(N)=O)N1CCCC1=O [levetiracetam, (2S)-2-(2-oxopyrrolidin-1-yl)butanamide]",performance in Verbal Paired Associates Test—Recognition,aMCI subjects [1],fail to rescue performance
same,performance in Buschke Selective Reminding Test—Delayed Recall,aMCI subjects [2],fail to rescue performance
same,performance in Benton Visual Retention Test,aMCI subjects [3],fail to rescue performance
same,effective doses of levetiracetam used in the animal model,"aged-impaired (AI) rats; given acutely, AI rats",5 to 10 mg/kg
same,average no. of errors±SEM,aged-impaired (AI) rats; levetiracetam 5 mg/kg/day i.p.,0.75±0.32
same,average no. of errors±SEM,aged-impaired (AI) rats; levetiracetam 10 mg/kg/day i.p.,0.80±0.27
same,performance of AI rats in the radial maze task,aged-impaired (AI) rats; levetiracetam 20 mg/kg,fails to improve the performance
same,effective in reducing the number of errors by AI rats in the radial arm maze,aged-impaired (AI) rats; 1.25 mg/kg,not
same,effective in reducing the number of errors by AI rats in the radial arm maze,aged-impaired (AI) rats; 2.5 mg/kg,not
same,effective in reducing the number of errors by AI rats in the radial arm maze,aged-impaired (AI) rats; 5-10 mg/kg,effective
same,performance in Verbal Paired Associates Test—Delayed Recall,aMCI subjects [4],fail to rescue performance
same,concentration at 2 weeks,[5]; 125 mg BID cohort,4400 ng/mL
same,concentration at 2 weeks,"[5]; oral, 62.5 mg BID cohort",2880 ng/mL
same,concentration at 2 weeks,"[5]; oral, 250 mg BID cohort",7900 ng/mL
